Reference: ChEMBL document CHEMBL5375955, “Discovery of New Fusobacterium nucleatum Inhibitors to Attenuate Migratory Capability of Colon Cancer Cells by the Drug Repositioning Strategy” (J Med Chem, 2023)
In brackets after ≈: the same amount, converted by molar mass. Activity calls are given as the source filed them. The calls are words filed in the database; no cut-off is given here.

Key:
Akkermansia muciniphila = test: Antibacterial activity against Akkermansia muciniphila ATCC BAA-835 assessed as bacterial growth inhibition incubated for 48 hrs by broth dilution susceptibility test; format: functional
[1] = system: Salmonella enterica subsp. enterica serovar Paratyphi B; test: Antibacterial activity against Salmonella paratyphi B ATCC CMCC50094 assessed as bacterial growth inhibition incubated for 48 hrs by broth dilution susceptibility test; format: functional
Fusobacterium nucleatum [2] = test: Antibacterial activity against Fusobacterium nucleatum ATCC 23726 assessed as bacterial growth inhibition incubated for 48 hrs by broth dilution susceptibility test; format: functional
[3] = Cytotoxicity against human L02 cells assessed as inhibition of cell growth incubated for 48 hrs by CCK-8 assay; format: toxicity, cell-based
MC-38 = test: Antiproliferative activity against mouse MC-38 cells assessed as inhibition of cell growth incubated for 48 hrs by CCK-8 assay; format: functional, cell-based; conditions: MC-38, 48 h
Fusobacterium nucleatum [4] = test: Antibacterial activity against Fusobacterium nucleatum ATCC 23726 assessed as bacterial growth inhibition incubated for 72 hrs by turbidimeter analysis; format: functional, organism-based
[5] = system: Peptostreptococcus anaerobius; test: Antibacterial activity against Peptostreptococcus anaerobius ATCC 27337 assessed as bacterial growth inhibition incubated for 48 hrs by broth dilution susceptibility test; format: functional
Staphylococcus aureus = test: Antibacterial activity against Staphylococcus aureus ATCC 6538 assessed as bacterial growth inhibition incubated for 48 hrs by broth dilution susceptibility test; format: functional
[6] = Cytotoxicity against HUVEC cells assessed as inhibition of cell growth incubated for 48 hrs by CCK-8 assay; format: toxicity, cell-based; conditions: human
Fusobacterium nucleatum [7] = test: Antibacterial activity against Fusobacterium nucleatum ATCC 23726 assessed as bacterial growth inhibition at 8 ug/ml incubated for 72 hrs by turbidimeter analysis; format: functional, organism-based; conditions: dose 8.0 µg/ml
Enterococcus faecalis = test: Antibacterial activity against Enterococcus faecalis ATCC 29212 assessed as bacterial growth inhibition incubated for 48 hrs by broth dilution susceptibility test; format: functional
Shigella flexneri = test: Antibacterial activity against Shigella flexneri ATCC 12022 assessed as bacterial growth inhibition incubated for 48 hrs by broth dilution susceptibility test; format: functional
HCT-116 = test: Antiproliferative activity against human HCT-116 cells assessed as inhibition of cell growth incubated for 48 hrs by CCK-8 assay; format: functional, cell-based; conditions: HCT-116, 48 h
Escherichia coli = test: Antibacterial activity against Escherichia coli […] assessed as bacterial growth inhibition incubated for 48 hrs by broth dilution susceptibility test; format: functional
[8] = system: Lactobacillus acidophilus; test: Antibacterial activity against Lactobacillus acidophilus ATCC CGMCC 1.577 assessed as bacterial growth inhibition incubated for 48 hrs by broth dilution susceptibility test; format: functional

| SMILES | MIC50 (Fusobacterium nucleatum [2]) [µg/mL] | other results |
| --- | --- | --- |
| O=C(OCc1ccc([N+](=O)[O-])o1)c1ccc(C(F)(F)F)cc1[N+](=O)[O-] | 4 (≈ 11.1 µM) | MIC50 (Akkermansia muciniphila): > 64 µg/mL; MIC50 [1]: 64 µg/mL (≈ 178 µM); IC50 at 48 h [3]: 81 µM; IC50 (MC-38): 49 µM; Activity (Fusobacterium nucleatum [4]): Dose-Dependent Effect; MIC50 [5]: > 64 µg/mL; MIC50 (Staphylococcus aureus): > 64 µg/mL; IC50 at 48 h [6]: 40 µM; Activity (Fusobacterium nucleatum [7]): Active; MIC50 (Enterococcus faecalis): > 64 µg/mL; MIC50 (Shigella flexneri): > 64 µg/mL; IC50 (HCT-116): 84 µM; MIC50 (Escherichia coli): > 64 µg/mL; MIC50 [8]: 64 µg/mL (≈ 178 µM) |
| O=C(Nc1ccon1)c1ccc([N+](=O)[O-])c(Br)c1 | > 64 |  |
| NC(=O)c1ccc(NC(=O)c2ccc(C(F)(F)F)cc2)cc1 | > 64 |  |
| O=C1NCCN1CCN1CCC(c2cn(-c3ccc(F)cc3)c3ccc(Cl)cc23)CC1 [SERTINDOLE] | 16 (≈ 36.3 µM) |  |
| Cl.Cl.Cl.O[C@@H](COc1cccc2ncccc12)CN1CCN([C@@H]2c3ccccc3[C@@H]3[C@H](c4ccccc42)C3(F)F)CC1 [ZOSUQUIDAR TRIHYDROCHLORIDE] | 16 |  |
| O=C(Nc1cc(Cl)cc([N+](=O)[O-])c1)c1ccc(C(F)(F)F)cc1[N+](=O)[O-] | > 64 |  |
| O=[N+]([O-])c1ccc(COc2ccc(C(F)(F)F)cc2[N+](=O)[O-])o1 | 4 (≈ 12 µM) |  |
| CSc1ccc(OCc2ncc([N+](=O)[O-])n2C)cc1 [FEXINIDAZOLE] | 8 (≈ 28.6 µM) |  |
| CS(=O)(=O)c1ccc(C(=O)C2C(=O)CCCC2=O)c(Cl)c1COCC(F)(F)F [TEMBOTRIONE] | > 64 |  |
| O=C(Nc1ccon1)c1ccc([N+](=O)[O-])cc1I | > 64 |  |
| COC(=O)OCc1ccc(NC(=O)c2ccc(C(F)(F)F)cc2[N+](=O)[O-])cc1 | > 64 |  |
| Cc1ncc([N+](=O)[O-])n1C [DIMETRIDAZOLE] | 1 (≈ 7.09 µM) |  |
| CS(=O)(=O)c1ccc(C(=O)C2C(=O)CCCC2=O)c([N+](=O)[O-])c1 [MESOTRIONE] | 32 (≈ 94.3 µM) |  |
| CC1CS(=O)(=O)CCN1/N=C/c1ccc([N+](=O)[O-])o1 (stereo unspecified) [NIFURTIMOX] | 16 (≈ 55.7 µM) |  |
| CN(N=O)C(=O)N[C@@H](C=O)[C@@H](O)[C@H](O)[C@H](O)CO [STREPTOZOCIN] | 0.125 (≈ 0.471 µM) |  |
| NC(=O)c1ccc(NC(=O)c2ccc(C(F)(F)F)cc2[N+](=O)[O-])cc1 | > 64 |  |
| OC1(c2ccc(Cl)c(C(F)(F)F)c2)CCN(CCCC(c2ccc(F)cc2)c2ccc(F)cc2)CC1 [PENFLURIDOL] | 8 (≈ 15.3 µM) |  |
